The source of these data is publication PMC12207590, “Substrate Specificity of the Organic Cation Transporters MATE1 and MATE2K and Functional Overlap with OCT1 and OCT2” (Journal of Medicinal Chemistry, 2025).

The target of one experiment is T1, MATE1 (Homo sapiens, UniProt Q96FL8).
T1 sequence (Q96FL8 1-570): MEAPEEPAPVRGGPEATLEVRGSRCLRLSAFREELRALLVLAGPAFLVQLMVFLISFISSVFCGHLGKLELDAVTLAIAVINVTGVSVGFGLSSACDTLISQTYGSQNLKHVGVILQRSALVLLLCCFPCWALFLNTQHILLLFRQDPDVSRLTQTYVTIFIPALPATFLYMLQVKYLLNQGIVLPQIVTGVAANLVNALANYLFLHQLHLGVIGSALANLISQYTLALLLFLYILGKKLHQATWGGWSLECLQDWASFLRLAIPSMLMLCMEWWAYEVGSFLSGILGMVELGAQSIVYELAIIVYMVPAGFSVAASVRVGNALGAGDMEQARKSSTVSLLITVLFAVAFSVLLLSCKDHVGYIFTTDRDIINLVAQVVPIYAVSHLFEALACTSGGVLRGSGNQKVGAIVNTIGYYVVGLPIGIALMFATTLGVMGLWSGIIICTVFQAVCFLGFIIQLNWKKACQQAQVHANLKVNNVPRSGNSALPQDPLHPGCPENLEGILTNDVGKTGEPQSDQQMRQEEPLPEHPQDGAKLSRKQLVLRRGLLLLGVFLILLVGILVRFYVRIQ
Description: Uptake ratio in MATE1-overexpressing HEK293 cells vs empty vector (2.5 μM, 1 min, HPLC-MS/MS). Format: cell-based. The note with it: for MATE1 ratio in this study: Table S1.

The next experiment addresses MATE2K (Homo sapiens, UniProt Q86VL8). The experiment can be described thus: Uptake ratio in MATE2K-overexpressing HEK293 cells vs empty vector (2.5 μM, 1 min, HPLC-MS/MS). The note with it: for MATE2K ratio in this study: Table S1. Format: cell-based.
Where [1] appears, read: fold uptake over empty vector, 2.5 μM, 1 min.
The mark [2] stands for this setting: uptake ratio MATE1-overexpressing vs empty-vector HEK293 cells, 2.5 μM, 1 min, mean.
The mark [3] stands for this setting: uptake ratio MATE2K-overexpressing vs empty-vector HEK293 cells, 2.5 μM, 1 min, mean.

Read-outs that look alike come from different tables or passages of the source.

MATE2K, sequence (Q86VL8 1-566 isoform Q86VL8-3): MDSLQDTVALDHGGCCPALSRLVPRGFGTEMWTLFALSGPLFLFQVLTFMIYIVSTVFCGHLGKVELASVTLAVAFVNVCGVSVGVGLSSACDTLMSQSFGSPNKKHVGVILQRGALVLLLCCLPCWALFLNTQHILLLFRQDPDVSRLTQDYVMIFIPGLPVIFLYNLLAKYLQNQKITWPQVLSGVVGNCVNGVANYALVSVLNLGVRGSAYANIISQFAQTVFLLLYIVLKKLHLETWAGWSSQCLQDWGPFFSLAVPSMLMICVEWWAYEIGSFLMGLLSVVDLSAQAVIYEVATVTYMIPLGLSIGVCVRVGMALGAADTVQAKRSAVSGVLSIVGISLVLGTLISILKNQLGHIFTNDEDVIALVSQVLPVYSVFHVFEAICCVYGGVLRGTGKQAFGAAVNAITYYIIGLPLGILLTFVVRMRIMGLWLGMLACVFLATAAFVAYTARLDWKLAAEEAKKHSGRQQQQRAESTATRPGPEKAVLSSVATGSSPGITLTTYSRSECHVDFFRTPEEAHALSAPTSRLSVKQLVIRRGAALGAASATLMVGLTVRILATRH

Take `CN(CCN1CCC(OC(=O)Nc2ccccc2-c2ccccc2)CC1)C(=O)c1ccc(CN2CCC(C(N)=O)CC2)cc1` [Revefenacin]: at MATE1 (setting [1]), the MATE1 ratio was determined as 1.39. For the same compound, the MATE1 on MATE1 (setting [2]) is listed as 1.39. Besides, the MATE2K ratio at MATE2K (setting [1]) was 1.17. The MATE2 at MATE2K (setting [3]) is 1.17.

With `CO[C@H]1/C=C/O[C@@]2(C)Oc3c(C)c(O)c4c(O)c(c(/C=N/N5CCN(C)CC5)c(O)c4c3C2=O)NC(=O)/C(C)=C\C=C\[C@H](C)[C@H](O)[C@@H](C)[C@@H](O)[C@@H](C)[C@H](OC(C)=O)[C@@H]1C` [Rifampicin], the MATE1 ratio at MATE1 (setting [1]) is 1.02. Further, the MATE1 at MATE1 (setting [2]) stood at 1.02. Also, the MATE2K ratio at MATE2K (setting [1]) turned out to be 0.93. In addition, the MATE2 on MATE2K (setting [3]) was found to be 0.93.

On to `CN(C)CCc1c[nH]c2ccc(Cn3cncn3)cc12` [Rizatriptan], for which the MATE1 ratio on MATE1 (setting [1]) turned out to be 6.63. Also, at MATE1 (setting [2]), the MATE1 is 6.63. Also, the MATE2K ratio at MATE2K (setting [1]) is 3.35. The MATE2 at MATE2K (setting [3]) was determined as 3.35.

Regarding `CNCc1ccc(-c2[nH]c3cc(F)cc4c3c2CCNC4=O)cc1` [Rucaparib], the MATE1 ratio at MATE1 (setting [1]) came to 3.71. The MATE1 on MATE1 (setting [2]) stood at 3.71. In addition, on MATE2K (setting [1]), the MATE2K ratio is on record as 2.03. Also, the MATE2 at MATE2K (setting [3]) came to 2.03.

As for `N#CC[C@H](C1CCCC1)n1cc(-c2ncnc3[nH]ccc23)cn1` [Ruxolitinib], the MATE1 ratio on MATE1 (setting [1]) turned out to be 1.13. Also, the MATE1 on MATE1 (setting [2]) was 1.13. Further, on MATE2K (setting [1]), the MATE2K ratio was 0.99. In addition, on MATE2K (setting [3]), the MATE2 came out at 0.99.

Consider `CC(C)(C)NCC(O)c1ccc(O)c(CO)c1` [Salbutamol (R), Salbutamol], for which the “MATE1 ratio in this study” value on MATE1 (2.5 μM, 1 min) is given as 6.98. Also, the MATE1 ratio on MATE1 (setting [1]) came to 6.98. The MATE1 at MATE1 (setting [2]) is reported as 6.98. Moreover, the “MATE2K ratio in this study” value at MATE2K (2.5 μM, 1 min) amounted to 3.74. For the same compound, the MATE2K ratio on MATE2K (setting [1]) is given as 3.74. Also, the MATE2 at MATE2K (setting [3]) was found to be 3.74.

For the compound `CC(C)(C)NCC(O)c1ccc(O)c(CO)c1` [Salbutamol (S), Salbutamol], on MATE1 (2.5 μM, 1 min), the “MATE1 ratio in this study” value was 8.88. For the same compound, the MATE1 ratio on MATE1 (setting [1]) was determined as 8.88. The MATE1 on MATE1 (setting [2]) is on record as 8.88. Moreover, on MATE2K (2.5 μM, 1 min), the “MATE2K ratio in this study” value is 5.09. Also, the MATE2K ratio on MATE2K (setting [1]) is recorded as 5.09. In addition, the MATE2 on MATE2K (setting [3]) was found to be 5.09.

In the case of `CC(C)(C)NCC(O)c1ccc(O)c(CO)c1` (centres unmarked) [Salbutamol], the “MATE1 ratio in this study” value on MATE1 (2.5 μM, 1 min) is listed as 7.94. The MATE1 ratio on MATE1 (setting [1]) amounted to 7.94. Moreover, the MATE1 on MATE1 (setting [2]) is given as 7.94. On MATE2K (2.5 μM, 1 min), the “MATE2K ratio in this study” value is 3.73. For the same compound, the MATE2K ratio at MATE2K (setting [1]) was determined as 3.73. Besides, the MATE2 on MATE2K (setting [3]) was determined as 3.73.

Regarding `OCc1cc(C(O)CNCCCCCCOCCCCc2ccccc2)ccc1O` (centres unmarked) [Salmeterol], the MATE1 ratio at MATE1 (setting [1]) was found to be 1.78. In addition, the MATE1 on MATE1 (setting [2]) is given as 1.78. Further, on MATE2K (setting [1]), the MATE2K ratio was found to be 1.17. Also, the MATE2 at MATE2K (setting [3]) is 1.17.

With `COc1cc2c(cc1OC)[C@H](C)NCC2` [Salsolidine], at MATE1, the MATE1 is recorded as 1.24 and the MATE1 ratio stood at 1.24. Further, on MATE2K, the MATE2 is 1.46 and the MATE2K ratio was 1.46.

`CNCC(=O)O` [Sarcosine]: the MATE1 ratio at MATE1 (setting [1]) is on record as 0.76. Further, the MATE1 on MATE1 (setting [2]) was found to be 0.76. Further, the MATE2K ratio on MATE2K (setting [1]) is 1.01. Further, the MATE2 on MATE2K (setting [3]) is recorded as 1.01.

`CCN(CC)CCNC(=O)c1ccc(NS(C)(=O)=O)cc1` [Sematilide]: the MATE1 ratio on MATE1 (setting [1]) is on record as 19.10. Besides, the MATE1 on MATE1 (setting [2]) was determined as 19.1. In addition, the MATE2K ratio on MATE2K (setting [1]) is on record as 6.42. Also, at MATE2K (setting [3]), the MATE2 was found to be 6.42.

Consider `NCCc1c[nH]c2ccc(O)cc12` [Serotonin], for which the MATE1 ratio on MATE1 (setting [1]) is 12.11. On MATE1 (setting [2]), the MATE1 is on record as 12.11. Besides, on MATE2K, the MATE2 is 2.26 and the MATE2K ratio amounted to 2.26.

As to `CN[C@H]1CC[C@@H](c2ccc(Cl)c(Cl)c2)c2ccccc21` [Sertraline], at MATE1 (setting [1]), the MATE1 ratio is 1.28. Further, the MATE1 on MATE1 (setting [2]) is on record as 1.28. The MATE2K ratio at MATE2K (setting [1]) is reported as 1.10. On MATE2K (setting [3]), the MATE2 was determined as 1.1.
